Values belong to the molecule of their own block, whether it stands above or below them. Positions of bridges follow the written chain, without caps; N, C: chain ends. Non-standard residues stand in square brackets, D forms with d. Residues, ends and D or L forms follow the SMILES beside them. Chains are numbered I, II in the order given. *: point of attachment. Dip = N[C@H](C(=O)O)C(c1ccccc1)c1ccccc1; X1 = O=C(O)C(=O)[C@H](CC(F)F)N*; Cha = N[C@@H](CC1CCCCC1)C(=O)O; Ahx = NCCCCCC(=O)O
Legend:
NS3 [1] = target: T1, NS3 (Hepatitis C virus, UniProt A3EZJ3); assay: Inhibitory concentration against hepatitis C virus NS4A binding region of NS3 protease; design: species or system Hepacivirus hominis
T1 sequence (A3EZJ3 whole entry): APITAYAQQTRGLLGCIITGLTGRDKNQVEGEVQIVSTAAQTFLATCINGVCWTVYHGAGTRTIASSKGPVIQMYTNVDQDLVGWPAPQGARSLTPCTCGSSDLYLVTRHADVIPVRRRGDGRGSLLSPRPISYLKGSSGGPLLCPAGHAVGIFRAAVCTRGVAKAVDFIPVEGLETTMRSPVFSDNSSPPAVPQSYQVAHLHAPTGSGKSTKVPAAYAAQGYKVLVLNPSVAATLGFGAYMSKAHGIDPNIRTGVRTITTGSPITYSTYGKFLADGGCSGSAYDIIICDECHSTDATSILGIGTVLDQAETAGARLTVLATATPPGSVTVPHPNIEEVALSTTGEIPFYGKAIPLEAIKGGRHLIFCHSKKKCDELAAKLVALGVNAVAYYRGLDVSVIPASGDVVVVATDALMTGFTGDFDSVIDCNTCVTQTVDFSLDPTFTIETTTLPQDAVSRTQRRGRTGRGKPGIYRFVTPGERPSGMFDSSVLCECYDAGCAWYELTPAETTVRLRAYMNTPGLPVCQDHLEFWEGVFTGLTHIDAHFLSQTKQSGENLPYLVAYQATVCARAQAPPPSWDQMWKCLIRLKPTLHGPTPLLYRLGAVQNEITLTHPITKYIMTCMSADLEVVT

NS3 [2] = target: T1, NS3; assay: Inhibitory constant against hepatitis C virus NS3 protease; design: species or system Hepacivirus hominis
NS3 (Hepatitis C virus) = NS3 (Hepatitis C virus) (UniProt A3EZJ3); assay: Percent inhibition against hepatitis C virus helicase at 25 ug/mL; Range 6-13; conditions: Hepacivirus hominis
Chain of NS3 (Hepatitis C virus) (A3EZJ3 as listed by the source): as the sequence (A3EZJ3 whole entry) above

[3] = target: T2, Hepatitis C virus NS4A protein (Hepatitis C virus, UniProt D2K2A8); assay: Inhibitory concentration against hepatitis C virus NS4A active site; design: species or system Hepacivirus hominis
T2 sequence (D2K2A8 whole entry): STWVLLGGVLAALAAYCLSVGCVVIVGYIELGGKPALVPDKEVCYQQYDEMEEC

NS3 [4] = target: T1, NS3; assay: Inhibitory concentration against hepatitis C virus helicase; range 0.6-0.7; design: species or system Hepacivirus hominis
Genome polyprotein = Genome polyprotein (Hepatitis C virus genotype 1a (isolate 1) (HCV), UniProt P26664); assay: Inhibitory concentration against hepatitis C virus NS2/3 protease; design: species or system Hepacivirus hominis
Chain of Genome polyprotein (P26664 810-1026 limits assumed): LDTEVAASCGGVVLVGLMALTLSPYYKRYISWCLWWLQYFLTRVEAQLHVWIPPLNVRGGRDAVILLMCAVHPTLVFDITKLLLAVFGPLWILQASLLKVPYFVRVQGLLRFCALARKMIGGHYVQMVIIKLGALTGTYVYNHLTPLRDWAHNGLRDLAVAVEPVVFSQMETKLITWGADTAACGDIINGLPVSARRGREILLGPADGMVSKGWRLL
Chain of Genome polyprotein (P26664 1027-1657 limits assumed): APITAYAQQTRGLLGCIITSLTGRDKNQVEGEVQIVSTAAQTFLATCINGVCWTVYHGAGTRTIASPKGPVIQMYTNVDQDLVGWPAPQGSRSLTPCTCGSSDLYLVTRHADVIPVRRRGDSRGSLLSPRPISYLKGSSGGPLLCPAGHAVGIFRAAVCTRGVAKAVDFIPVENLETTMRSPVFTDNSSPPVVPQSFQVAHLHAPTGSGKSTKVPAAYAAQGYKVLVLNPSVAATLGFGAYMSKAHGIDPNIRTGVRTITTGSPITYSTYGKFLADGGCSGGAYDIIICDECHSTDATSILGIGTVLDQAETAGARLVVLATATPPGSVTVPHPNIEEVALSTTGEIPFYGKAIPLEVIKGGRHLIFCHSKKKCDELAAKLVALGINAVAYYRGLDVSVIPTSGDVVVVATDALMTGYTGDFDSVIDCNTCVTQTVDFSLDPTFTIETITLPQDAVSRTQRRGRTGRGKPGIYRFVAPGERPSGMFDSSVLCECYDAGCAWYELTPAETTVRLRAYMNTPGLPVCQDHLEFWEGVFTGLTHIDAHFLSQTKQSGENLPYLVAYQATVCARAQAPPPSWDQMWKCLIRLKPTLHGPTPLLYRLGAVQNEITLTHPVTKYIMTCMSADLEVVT

[5] = system: Internal ribosome entry site (IRES); assay: Inhibitory concentration against hepatitis C virus internal ribosomal entry site; assay type: nucleic-acid assay, Hepacivirus hominis
[6] = target: T2, Hepatitis C virus NS4A protein; assay: Inhibitory concentration against hepatitis C NS4A protease; design: species or system Hepacivirus hominis

Molecule: O=C(O)[C@H](Cc1ccccc1)N(Cc1cccc(C(F)(F)F)c1)C(=O)c1ccc(Cl)cc1Cl
Ki (NS3 [2]): 2200 nM

Molecule: CC[C@H](C)[C@H](NC(=O)[C@H](CCCNC(=N)N)NC(=O)CNC(=O)[C@@H](NC(=O)[C@@H](NC(=O)[C@@H](NC(=O)[C@@H](NC(=O)[C@H](CS)NC(=O)CCCCCNC(=O)CCCCCNC(=O)[C@H](CS)NC(=O)[C@H](CS)NC(=O)[C@@H](NC(=O)[C@@H](NC(=O)[C@H](CC(=O)O)NC(=O)[C@@H](N)CCC(=O)O)C(C)C)C(C)C)C(C)C)C(C)C)[C@@H](C)CC)C(C)C)C(=O)N[C@H](C(=O)N[C@@H](CC(C)C)C(=O)N[C@@H](CO)C(=O)NCC(=O)N[C@@H](CCCCN)C(=O)O)C(C)C (H-EDVVCC[Ahx][Ahx]CVVIVGRIVLSGK-OH)
IC50 (NS3 [1]): 600 nM

Molecule: H-KGSVVIVGRIILSGRK-OH
IC50 (Genome polyprotein): 5700 nM

Molecule: CCN(CC)c1ccc2[o+]c3cc(C)c(N)cc3nc2c1
IC50 [5]: 1000 nM

Molecule: CC[C@H](C)[C@H](NC(=O)CNC(=O)[C@H](CCCN=C(N)N)NC(=O)[C@@H](NC(=O)[C@@H](NC(=O)[C@H](CC(C)C)NC(=O)[C@H](CO)NC(=O)CNC(=O)[C@H](CCCCN)NC(=O)CCCCCNC(=O)[C@H](CS)NC(=O)[C@H](CS)NC(=O)[C@@H](NC(=O)[C@@H](NC(=O)[C@H](CCC(=O)O)NC(=O)[C@@H](N)CC(=O)O)C(C)C)C(C)C)C(C)C)[C@@H](C)CC)C(=O)N[C@H](C(=O)N[C@H](C(=O)N[C@@H](CS)C(=O)N[C@@H](CCCCN)C(=O)O)C(C)C)C(C)C (H-DEVVCC[Ahx]KGSLVIRGIVVCK-OH)
IC50 (NS3 [1]): 200 nM

Molecule: H-CVVIVGRIVLSGK-OH
IC50 [6]: 200 nM

Molecule: H-SLVIRGVIV-OH
IC50 [3]: 600 nM

Molecule: Nc1ccc2c(c1)NC(=O)c1cc(N)cnc1O2
IC50 [5]: > 10000 nM

Molecule: Ac-RGGSVVIVGRIILSGRK-OH
IC50 (Genome polyprotein): 3400 nM

Molecule: CC[C@H](C)[C@H](NC(=O)[C@H](CCCN=C(N)N)NC(=O)CNC(=O)[C@@H](NC(=O)[C@@H](NC(=O)[C@@H](NC(=O)[C@@H](NC(=O)[C@H](CS)NC(=O)CCCCCNC(=O)[C@H](CS)NC(=O)[C@H](CS)NC(=O)[C@@H](NC(=O)[C@@H](NC(=O)[C@H](CC(=O)O)NC(=O)[C@@H](N)CCC(=O)O)C(C)C)C(C)C)C(C)C)C(C)C)[C@@H](C)CC)C(C)C)C(=O)N[C@H](C(=O)N[C@@H](CC(C)C)C(=O)N[C@@H](CO)C(=O)NCC(=O)N[C@@H](CCCCN)C(=O)N[C@@H](CCCCN)C(=O)O)C(C)C (H-EDVVCC[Ahx]CVVIVGRIVLSGKK-OH)
IC50 (NS3 [1]): 3000 nM

Molecule: CC(C)COC(=O)N[C@@H](CCC(=O)O)C(=O)N[C@@H](CC(C)C)C(=O)N[C@@H](CC(F)F)C(=O)NCCc1ccc(C(=O)O)cc1Cl
Ki (NS3 [2]): 600 nM

Molecule: Nc1ccc2[nH]c3ccc(N)cc3c2c1
IC50 [5]: > 10000 nM

The next lines start with the values.

IC50 (NS3 [1]): 200 nM
Molecule: CC[C@H](C)[C@@H](NC(=O)[C@H](NC(=O)[C@@H](CC(C)C)NC(=O)[C@@H](CO)NC(=O)CNC(=O)[C@H](CCCCN)NC(=O)CCCCCNC(=O)CCCCCNC(=O)[C@H](CS)NC(=O)[C@H](CS)NC(=O)[C@@H](NC(=O)[C@@H](NC(=O)[C@H](CC(=O)O)NC(=O)[C@@H](N)CCC(=O)O)C(C)C)C(C)C)C(C)C)C(=O)N[C@H](CCCN=C(N)N)C(=O)NCC(=O)N[C@@H](C(=O)N[C@@H](C(=O)N[C@@H](C(=O)N[C@@H](C(=O)N[C@H](CS)C(=O)O)C(C)C)C(C)C)[C@@H](C)CC)C(C)C

inhibition (NS3 (Hepatitis C virus)): 13%
Molecule: O=C(CCCCC(=O)Nc1nc2ccccc2[nH]1)Nc1nc2ccccc2[nH]1

IC50 [3]: 200 nM
Molecule: H-KGSLVIRGVIVVCK-OH

IC50 (NS3 [4]): 700 nM
Molecule: CN1CCN(CCCN2c3ccccc3Sc3ccc(C(F)(F)F)cc32)CC1 [TRIFLUOPERAZINE]

Ki (NS3 [2]): 10 nM
Molecule: CC(=O)N[C@@H](CC(=O)O)C(=O)N[C@@H](CCC(=O)O)C(=O)N[C@H](C(=O)N[C@@H](CCC(=O)O)C(=O)N[C@@H](CC1CCCCC1)C(=O)N[C@@H](CC(F)F)C(=O)C(=O)O)C(c1ccccc1)c1ccccc1 (Ac-DE[Dip]E[Cha]-X1)

Ki (NS3 [2]): 600 nM
Molecule: Ac-DEMEEC-OH

IC50 [5]: 20 nM
Molecule: Cc1cc2nc3ccc(N(C)C)cc3nc2cc1N

IC50 (NS3 [1]): 3000 nM
Molecule: CC[C@H](C)[C@H](NC(=O)[C@H](CCCN=C(N)N)NC(=O)CNC(=O)[C@@H](NC(=O)[C@@H](NC(=O)[C@@H](NC(=O)[C@@H](NC(=O)[C@@H](N)CS)C(C)C)C(C)C)[C@@H](C)CC)C(C)C)C(=O)N[C@H](C(=O)N[C@@H](CC(C)C)C(=O)N[C@@H](CO)C(=O)NCC(=O)N[C@@H](CCCCN)C(=O)NCCCC[C@H](NC(=O)CCCCCNC(=O)[C@H](CS)NC(=O)[C@H](CS)NC(=O)[C@@H](NC(=O)[C@@H](NC(=O)[C@H](CC(=O)O)NC(=O)[C@@H](N)CCC(=O)O)C(C)C)C(C)C)C(=O)O)C(C)C (I: H-CVVIVGRIVLSGK / II: H-EDVVCC[Ahx]K-OH; amide I:C-II:8)

Ki (NS3 [2]): 40 nM
Molecule: CC(=O)N[C@@H](CC(=O)O)C(=O)N[C@@H](CCC(=O)O)C(=O)N[C@H](C(=O)N[C@@H](CCC(=O)O)C(=O)N[C@@H](CC1CCCCC1)C(=O)N[C@@H](CS)C(=O)O)C(c1ccccc1)c1ccccc1 (Ac-DE[Dip]E[Cha]C-OH)

Ki (NS3 [2]): 2200 nM
Molecule: O=C(O)[C@H](Cc1ccccc1)N(Cc1ccc(-c2cc3ccccc3o2)s1)C(=O)c1ccc(Cl)cc1Cl

IC50 [5]: > 10000 nM
Molecule: Nc1ccc2c(c1)Oc1ncc(N)cc1C(=O)N2

Source: ChEMBL document CHEMBL1145280, “Control of hepatitis C: a medicinal chemistry perspective” (J Med Chem, 2005)
